Results taken from PMC6522510 (Nature Communications, 2019).
Read-outs that look alike come from different tables or passages of the source.

Assays:
Design in all cases: species or system AML cell lines (8); Primary HTS, single concentration about 10 uM, Cell Titer Glo viability; log10 luminescence, per cent inhibition relative to cycloheximide control
Conditions in all cases: 72 h, relative to cycloheximide control, log10 luminescence, inhibitor
M07e = system: M07e
ML-2 = system: ML-2
CHRF288-11 = system: CHRF288-11
U937 = system: U937
MOLM-13 = system: MOLM-13
MV4-11 = system: MV4-11
CMK = system: CMK
CMS = system: CMS

SMILES	M07e %inh (M07e; M07e %inh, 10 µM)	ML-2 %inh (ML-2; ML-2 %inh, 10 µM)	CHRF288-11 %inh (CHRF288-11; CHRF288-11 %inh, 10 µM)	U937 %inh (U937; U937 %inh, 10 µM)	MOLM-13 %inh (MOLM-13; MOLM-13 %inh, 10 µM)	MV4-11 %inh (MV4-11; MV4-11 %inh, 10 µM)	CMK %inh (CMK; CMK %inh, 10 µM)	CMS %inh (CMS; CMS %inh, 10 µM)	M07e %inh (M07e)	ML-2 %inh (ML-2)	CHRF288-11 %inh (CHRF288-11)	U937 %inh (U937)	MOLM-13 %inh (MOLM-13)	MV4-11 %inh (MV4-11)	CMK %inh (CMK)	CMS %inh (CMS)
Nc1ncnc2occ(-c3ccc(NC(=O)Nc4cc(C(F)(F)F)ccc4F)cc3)c12 [SJ000573048-2, CL210513-029A3 | T299/89/1 | YF46626-103A2]	28.03%	4.549%	5.114%	50.36%	99.82%	78.92%	82.88%	10.62%	–	–	–	–	–	–	–	–
Cc1cc(O)cc(C)c1/C=C/c1cncc(-c2nn[nH]n2)c1 [SJ000573052-1, T252/80/1]	–	–	–	–	–	–	–	–	-1.115%	-1.281%	-3.388%	-3.239%	-1.521%	-3.299%	-5.146%	-2.3%
CN(C)C(=O)O[C@H]1CN[C@H](C#Cc2cc3ncnc(Nc4ccc(OCc5cccc(F)c5)c(Cl)c4)c3s2)C1 [SJ000573053-1, U20298/139/1 | U20747/39/1]	–	–	–	–	–	–	–	–	1.476%	5.015%	65.04%	-0.4617%	-0.949%	4.747%	-4.087%	2.516%
CN(C)C(=O)O[C@@H]1CN[C@@H](C#Cc2cc3ncnc(Nc4ccc(OCc5cccc(F)c5)c(Cl)c4)c3s2)C1 [SJ000573053-2, U20298/139/1 | U20747/39/1]	–	–	–	–	–	–	–	–	-1.206%	1.706%	39.41%	3.489%	-3.067%	-0.77%	-4.505%	4.277%
COc1cccc(-n2cnc3c(N/N=C/c4ccncc4)ncnc32)c1 [SJ000573055-1, U17791/62/2]	–	–	–	–	–	–	–	–	2.779%	-0.9344%	0.9652%	6.107%	29.19%	22.16%	9.137%	0.1507%
CN1CCN(C(=O)c2ccc(NC(=O)Nc3ccc(N(C)c4ccnc(Nc5ccc(CS(C)(=O)=O)cc5)n4)cc3)cc2)CC1 [SJ000573056-1, U17983/92/5]	–	–	–	–	–	–	–	–	-6.05%	10.8%	0.03637%	5.393%	94.26%	82.16%	6.346%	-2.808%
Cc1ccc2c(-c3ccnc(Nc4cccc(C(F)(F)F)c4)n3)c(-c3ccccc3)nn2n1 [SJ000573057-1, U18020/146/1]	–	–	–	–	–	–	–	–	0.344%	9.435%	-3.995%	5.106%	-0.1836%	9.271%	8.756%	10.95%
COc1cc(C=NNc2ncnc3c2cnn3Cc2ccccc2)ccc1O [SJ000573058-1, T237/25/8]	–	–	–	–	–	–	–	–	-2.447%	0.3051%	-7.429%	-2.319%	-1.629%	-3.195%	-3.542%	-1.754%
COc1ccc(C2=C(N3CCc4ccccc43)C(=O)NC2=O)cc1 [SJ000573061-1, DH97836-162A1]	–	–	–	–	–	–	–	–	1.612%	4.148%	16.97%	9.443%	-1.299%	5.926%	1.284%	1.472%
CCc1cccc(CC)c1/C=C/c1cncc(C(=O)NC)c1 [SJ000573062-1, U12068/83/1]	–	–	–	–	–	–	–	–	15.2%	7.466%	36.66%	29.57%	18.25%	-0.1109%	82.75%	0.8952%
COc1cc(Nc2ncc3c(C)nc(-c4cccc(Oc5ccccc5)c4)n3n2)cc(OC)c1OC [SJ000573063-1, U19891/44/1]	–	–	–	–	–	–	–	–	11.27%	2.68%	8.926%	10.08%	53.84%	46.32%	25.77%	22.07%
CCN1CCC(CC(=O)Nc2n[nH]c3nnc(-c4cccc(F)c4F)cc23)CC1 [SJ000573064-1, VB101259-076A3]	–	–	–	–	–	–	–	–	13.75%	6.747%	30.8%	13.36%	13.03%	39.53%	96.65%	104.4%
Cn1cc(C=C2C(=O)Nc3cccnc32)c2ccccc21 [SJ000573065-1, U14362/24/1 | GW-441756 | GW441756]	–	–	–	–	–	–	–	–	-6.294%	-1.442%	-4.894%	-3.233%	21.32%	36.15%	2.086%	-3.947%
NCc1ccc(-n2c(-c3nonc3N)nc3cnccc32)cc1 [SJ000573066-1, CP100101-172A1]	–	–	–	–	–	–	–	–	5.233%	11.91%	11.55%	21.07%	27.71%	62.53%	18.18%	11.21%
O=C(Nc1n[nH]c2cc(-c3ccccc3)ccc12)C1CC1 [SJ000573067-1, VB100064-117A1]	–	–	–	–	–	–	–	–	17.84%	19.77%	40.96%	46.5%	40.31%	0.9726%	85.27%	3.176%
Cc1cc(O)cc(C)c1/C=C/c1cncc(C(N)=O)c1 [SJ000573068-1, U11805/173/2]	–	–	–	–	–	–	–	–	72.97%	51.45%	44.74%	80.88%	75.99%	70.37%	90.65%	51.62%
CNC(=O)c1cncc(/C=C/c2ccccc2C)c1 [SJ000573069-1, U12068/59/1]	–	–	–	–	–	–	–	–	4.224%	-0.01519%	-2.201%	-1.047%	-1.542%	-0.4269%	-3.696%	0.1448%
CNC(=O)c1cncc(/C=C/c2ccccc2Cl)c1 [SJ000573070-1, U12068/61/1]	–	–	–	–	–	–	–	–	31.9%	26.34%	33.2%	0.1459%	4.101%	-1.892%	93.63%	-0.2342%
CS(=O)(=O)CCNCc1nc(-c2ccc3ncnc(Nc4ccc(OCc5cccc(C(F)(F)F)c5)cc4)c3c2)cs1 [SJ000573071-1, U14859/60/2]	–	–	–	–	–	–	–	–	1.42%	1.048%	-1.328%	0.6329%	70.81%	64.74%	3.287%	1.221%
c1ccc(Nc2ncc(-c3ccccc3)o2)cc1 [SJ000573072-1, U13103/99/1]	–	–	–	–	–	–	–	–	-2.471%	3.842%	2.769%	3.569%	84.62%	59.12%	6.254%	-0.2616%
COc1ccc(-c2nn3ncccc3c2-c2ccnc(Nc3ccc(Cl)c(C(F)(F)F)c3)n2)cc1 [SJ000573073-1, U17838/183/2]	–	–	–	–	–	–	–	–	-2.862%	-1.529%	1.294%	0.7639%	-0.8658%	3.163%	3.073%	0.1387%
